In ChEMBL document CHEMBL1155955, “Structure-activity relationship studies of the chromosome segregation inhibitor, Incentrom A” (2008):
In brackets after ≈: the same amount, converted by molar mass. Activity calls are given as the source filed them. The rule behind the calls is not given here.

How the values were obtained:
Saccharomyces cerevisiae [1] = experiment: Antiproliferative activity against yeast YPH278 assessed as reduction in cell viability after 24 hrs; format: functional
Saccharomyces cerevisiae [2] = experiment: Inhibition of chromosome segregation in yeast YPH278 at 5 uM; format: functional, organism-based
Saccharomyces cerevisiae [3] = experiment: Inhibition of chromosome segregation in yeast YPH278 at 15 uM; format: functional, organism-based

| SMILES | MIC (Saccharomyces cerevisiae [1]) | Activity (Saccharomyces cerevisiae [2]) | Activity (Saccharomyces cerevisiae [3]) |
| --- | --- | --- | --- |
| O=C(Nc1ccc2c(c1)c1ccccc1n2CCCCN1CCN(C/C=C/c2ccccc2)CC1)c1ccccc1 | > 45 µM |  |  |
| OC(CN1CCN(CCCc2ccccc2)CC1)Cn1c2ccccc2c2ccccc21 (stereo unspecified) | 20 µM (≈ 8.55 µg/mL) |  |  |
| O=C(OC(CN1CCN(C/C=C/c2ccccc2)CC1)Cn1c2ccccc2c2ccccc21)c1ccccc1 (stereo unspecified) | > 45 µM |  |  |
| CC(=O)OC(CN1CCN(C/C=C/c2ccccc2)CC1)Cn1c2ccccc2c2ccccc21 (stereo unspecified) | 18 µM (≈ 8.42 µg/mL) |  |  |
| OC(CN1CCN(Cc2ccccc2)CC1)Cn1c2ccccc2c2ccccc21 (stereo unspecified) | > 45 µM |  |  |
| Oc1ccc(CCCN2CCN(CCCCn3c4ccccc4c4ccccc43)CC2)cc1 | 28 µM (≈ 12.4 µg/mL) |  |  |
| OC(CN1CCN(C/C=C/c2ccccc2)CC1)CN(c1ccccc1)c1ccccc1 (stereo unspecified) | 45 µM (≈ 19.2 µg/mL) |  |  |
| C(=C\c1ccccc1)/CN1CCN(CCCCn2c3ccccc3c3ccccc32)CC1 | 5 µM (≈ 2.12 µg/mL) | Active |  |
| COc1cccc(/C=C/CN2CCN(CCCCn3c4ccccc4c4ccccc43)CC2)c1 | 12 µM (≈ 5.44 µg/mL) |  |  |
| Oc1cccc(/C=C/CN2CCN(CCCCn3c4ccccc4c4ccccc43)CC2)c1 | 27 µM (≈ 11.9 µg/mL) |  |  |
| CC(=O)OC(Cc1ccccc1)CN1CCN(CCCCn2c3ccccc3c3ccccc32)CC1 (stereo unspecified) | 18 µM (≈ 8.71 µg/mL) |  |  |
| OC(CN1CCN(C/C=C/c2ccccc2)CC1)CN1c2ccccc2Oc2ccccc21 (stereo unspecified) | 7 µM (≈ 3.09 µg/mL) |  |  |
| O=C(CN1CCN(C/C=C/c2ccccc2)CC1)Cn1c2ccccc2c2ccccc21 | > 45 µM |  |  |
| c1ccc2c(c1)c1ccccc1n2CCCCN1CCN(CCCC2CCCCC2)CC1 | 5 µM (≈ 2.16 µg/mL) |  |  |
| C(=C\c1ccccc1)/CN1CCN(CCCCCCCCn2c3ccccc3c3ccccc32)CC1 | 44 µM (≈ 21.1 µg/mL) |  |  |
| CN(C)c1ccc(/C=C/CN2CCN(CCCCn3c4ccccc4c4ccccc43)CC2)cc1 | 42 µM (≈ 19.6 µg/mL) |  |  |
| OC(CN1CCN(C/C=C/c2ccccc2)CC1)Cn1ccc2ccccc21 (stereo unspecified) | > 45 µM |  |  |
| c1ccc(CCCCCN2CCN(CCCCn3c4ccccc4c4ccccc43)CC2)cc1 | 4 µM (≈ 1.81 µg/mL) |  |  |
| OC(CN1CCN(C/C=C/c2ccccc2)CC1)Cn1c2c(c3ccccc31)CCCC2 (stereo unspecified) | 25 µM (≈ 10.7 µg/mL) |  |  |
| CCCCCCOc1ccc(CCCN2CCN(CCCCn3c4ccccc4c4ccccc43)CC2)cc1 | > 45 µM |  |  |
| C(=C\c1ccccc1)/CN1CCN(CCCCn2c3c(c4ccccc42)CCCC3)CC1 | 10 µM (≈ 4.28 µg/mL) |  |  |
| [N-]=[N+]=Nc1ccc(/C=C/CN2CCN(CCCCn3c4ccccc4c4ccccc43)CC2)cc1 | 5 µM (≈ 2.32 µg/mL) | Active |  |

| SMILES | MIC (Saccharomyces cerevisiae [1]) | Activity (Saccharomyces cerevisiae [2]) | Activity (Saccharomyces cerevisiae [3]) |
| --- | --- | --- | --- |
| c1ccc(COc2ccc(CCCN3CCN(CCCCn4c5ccccc5c5ccccc54)CC3)cc2)cc1 | > 45 µM |  |  |
| c1ccc2cc(CN3CCN(CCCCn4c5ccccc5c5ccccc54)CC3)ccc2c1 | 30 µM (≈ 13.4 µg/mL) |  |  |
| COc1ccc(CCCN2CCN(CCCCn3c4ccccc4c4ccccc43)CC2)cc1 | 8 µM (≈ 3.65 µg/mL) |  |  |
| c1ccc(C2OC2CN2CCN(CCCCn3c4ccccc4c4ccccc43)CC2)cc1 (stereo unspecified) | 7 µM (≈ 3.08 µg/mL) |  |  |
| O[C@H](CN1CCN(C/C=C/c2ccccc2)CC1)Cn1c2ccccc2c2ccccc21 | 14 µM (≈ 5.96 µg/mL) |  |  |
| O[C@@H](CN1CCN(C/C=C/c2ccccc2)CC1)Cn1c2ccccc2c2ccccc21 | 15 µM (≈ 6.38 µg/mL) |  |  |
| c1ccc(CCN2CCN(CCCCn3c4ccccc4c4ccccc43)CC2)cc1 | 9 µM (≈ 3.7 µg/mL) |  |  |
| O=[N+]([O-])c1ccc2c(c1)c1ccccc1n2CCCCN1CCN(C/C=C/c2ccccc2)CC1 | 5 µM (≈ 2.34 µg/mL) |  |  |
| Nc1ccc(/C=C/CN2CCN(CCCCn3c4ccccc4c4ccccc43)CC2)cc1 | 15 µM (≈ 6.58 µg/mL) |  |  |
| [N-]=[N+]=NC(CN1CCN(C/C=C/c2ccccc2)CC1)Cn1c2ccccc2c2ccccc21 (stereo unspecified) | > 45 µM |  |  |
| O=C(OC(Cc1ccccc1)CN1CCN(CCCCn2c3ccccc3c3ccccc32)CC1)c1ccccc1 (stereo unspecified) | > 45 µM |  |  |
| Nc1ccc(CCCN2CCN(CCCCn3c4ccccc4c4ccccc43)CC2)cc1 | 16 µM (≈ 7.05 µg/mL) |  |  |
| OC(CN1CCN(C/C=C/c2ccccc2)CC1)Cn1c2ccccc2c2ccccc21 (stereo unspecified) | 15 µM (≈ 6.38 µg/mL) |  | Active |
| c1ccc(CCCCN2CCN(CCCCn3c4ccccc4c4ccccc43)CC2)cc1 | 5 µM (≈ 2.2 µg/mL) |  |  |
| C(=C\c1ccccc1)/CN1CCN(CCCn2c3ccccc3c3ccccc32)CC1 | 12 µM (≈ 4.91 µg/mL) |  |  |
| C(=C\c1ccccc1)/CN1CCN(CCCCCn2c3ccccc3c3ccccc32)CC1 | 6 µM (≈ 2.63 µg/mL) |  |  |
| C(=C\c1ccccc1)/CN1CCN(CCCCCCn2c3ccccc3c3ccccc32)CC1 | 7 µM (≈ 3.16 µg/mL) |  |  |
| OC(Cc1ccccc1)CN1CCN(CCCCn2c3ccccc3c3ccccc32)CC1 (stereo unspecified) | 12 µM (≈ 5.3 µg/mL) |  |  |
| CCCCCCCCOc1ccc(CCCN2CCN(CCCCn3c4ccccc4c4ccccc43)CC2)cc1 | > 45 µM |  |  |
| O=c1c2ccccc2n(CCCCN2CCN(C/C=C/c3ccccc3)CC2)c2ccccc12 | > 45 µM |  |  |
| CC(=O)Nc1ccc2c(c1)c1ccccc1n2CCCCN1CCN(C/C=C/c2ccccc2)CC1 | > 45 µM |  |  |
